Several values for one entry are separate records, joined by “and”; a condition that tells them apart may be missing. Equal values may be shown once. Read-outs that look alike come from different tables or passages of the source.
Legend:
fall armyworm = assay: Leaf disk mortality assay, Y. entomophaga cells with chemical insecticides; details: for LT50 (95% confidence intervals) / LT50 (95% confidence intervals) in days: 3rd instar; for LT50 Chem. / % Mort. Chem.: fall armyworm; for mortality at 19 µg/mL / mortality at 60 µg/mL / mortality at 300 µg/mL: Spodoptera frugiperda, foliar
diamondback moth = assay: whole plant or invertebrate; details: for LT50 (95% confidence intervals) / LT50 (95% confidence intervals) in days: 2nd instar diamondback moth; for LT50 Chem. / % Mort. Chem.: Diamondback moth; for LT50 (95% confidence intervals) in days: Probit analysis
Text: (§1) These were set to dry for 1 hr.
as §1
These were set to dry for 1 hr. Cabbage disks were then dipped in either 1% Luria broth (LB) media solution (controls and thiacloprid alone treatments) or in 1% cell free filtrate from a culture Y. entomophaga isolate O24G3R (Y. entomophaga alone or in combination with thiacloprid treatments).

cabbage looper [1] = details: Cabbage Looper, clothianidin 60 mg/L
Experimental: To produce cell free filtrates, cultures of Yersinia entomophaga grown in LB medium were centrifuged at 11,448 (g) for 10 minutes. The supernatant was decanted from the centrifuged pellet and filtered through a 0.22 μm filter. Assays were performed to determine concentrations of Yen-TC (toxin complex) using ELISA, and chitinase by measuring chitinase activity on specific substrates. […] This was done to estimate relative potency of the cell free filtrates. Insects were first pre-screened with a range of dilutions of cell free filtrates to select a concentration that provided moderate activity. […] Based on these initial screens, undiluted cell free filtrate was used for cabbage looper, fall armyworm, black cutworm, and Colorado potato beetle. […] In each of the Examples below, this is expressed as 1%.
Cabbage leaf disks were dipped in either acetone (controls and Y. entomophaga alone treatments) or novaluron (Sigma 32419) at 1.0 mg/L in acetone. These were set to dry for 1 hr. […] After the cabbage disks had dried for 1 hr, a single 3rd instar cabbage looper was added to each individual cabbage disk. A total of 20 insects were evaluate for each treatment. Insects were observed daily and scored as live or dead.

black cutworm = assay: Leaf disk mortality assay, Y. entomophaga cells with chemical insecticides; details: for LT50 Chem.: black cutworm
cabbage looper [2] = system: cabbage looper

With CC1(C)[C@H](C(=O)O[C@H](C#N)c2cccc(Oc3ccccc3)c2)[C@@H]1/C=C(\Cl)C(F)(F)F (racemic) [λ-cyhalothrin] the “LT50 (95% confidence intervals)” value (fall armyworm; λ-cyhalothrin […], isolate O43NEW 1×10^5 cfu/mL) was 5.20 days and the “LT50 Chem.” value (fall armyworm; λ-cyhalothrin alone […]) was 5.20 days.
With CCOP(=S)(OCC)Oc1nc(Cl)c(Cl)cc1Cl [Chlorpyrifos] the “LT50 (95% confidence intervals) in days” value (fall armyworm; chlorpyrifos 19 mg/L, isolate O24G3R 1×10^5 cfu/mL) was 8.02 (7.22-8.91) days, the “LT50 (95% confidence intervals) in days” value (fall armyworm; chlorpyrifos 19 mg/L, isolate O24KEK 1×10^5 cfu/mL) was 8.02 (7.22-8.91) days and the “LT50 (95% confidence intervals) in days” value (fall armyworm; chlorpyrifos 19 mg/L, isolate O43NEW 1×10^5 cfu/mL) was 6.83 (6.09-7.66) days. For the same molecule, the “LT50 (95% confidence intervals)” value (fall armyworm; chlorpyrifos 19 mg/L, isolate O333A4 1×10^5 cfu/mL) was 8.02 days, the mortality at 19 µg/mL (fall armyworm; 72 h, read-out: % Mortality (3DAT), 3rd instar, chlorpyrifos 19 mg/L, isolate O43NEW 1×10^5 cfu/mL) was 40% and the mortality at 19 µg/mL (fall armyworm; 96 h, read-out: % Mortality (4DAT), 3rd instar, chlorpyrifos 19 mg/L, isolate O43NEW 1×10^5 cfu/mL) was 45%. The mortality at 19 µg/mL (fall armyworm; 96 h, read-out: % Mortality (4DAT), 3rd instar, chlorpyrifos 19 mg/L, isolate O333A4 1×10^5 cfu/mL) was 35%, the mortality at 19 µg/mL (fall armyworm; 120 h, read-out: % Mortality (5DAT), 3rd instar, chlorpyrifos 19 mg/L, isolate O24G3R 1×10^5 cfu/mL) was 35% and the mortality at 19 µg/mL (fall armyworm; 120 h, read-out: % Mortality (5DAT), 3rd instar, chlorpyrifos 19 mg/L, isolate O333A4 1×10^5 cfu/mL) was 35%. The mortality at 19 µg/mL (fall armyworm; 144 h, read-out: % Mortality (6DAT), 3rd instar, chlorpyrifos 19 mg/L, isolate O24G3R 1×10^5 cfu/mL) was 35%, the mortality at 19 µg/mL (fall armyworm; 144 h, read-out: % Mortality (6DAT), 3rd instar, chlorpyrifos 19 mg/L, isolate O24KEK 1×10^5 cfu/mL) was 35% and the mortality at 19 µg/mL (fall armyworm; 144 h, read-out: % Mortality (6DAT), 3rd instar, chlorpyrifos 19 mg/L, isolate O333A4 1×10^5 cfu/mL) was 35%. The mortality at 19 µg/mL (fall armyworm; 168 h, read-out: % Mortality (7DAT), 3rd instar, chlorpyrifos 19 mg/L, isolate O24G3R 1×10^5 cfu/mL) was 40%, the mortality at 19 µg/mL (fall armyworm; 168 h, read-out: % Mortality (7DAT), 3rd instar, chlorpyrifos 19 mg/L, isolate O24KEK 1×10^5 cfu/mL) was 40% and the mortality at 19 µg/mL (fall armyworm; 168 h, read-out: % Mortality (7DAT), 3rd instar, chlorpyrifos 19 mg/L, isolate O333A4 1×10^5 cfu/mL) was 40%. The “% Mort. Chem.” value (fall armyworm; Chlorpyrifos 19 mg/L, 3 DAT) was 40%, the “% Mort. Chem.” value (fall armyworm; Chlorpyrifos 19 mg/L, 5 DAT) was 35% and the “% Mort. Chem.” value (fall armyworm; Chlorpyrifos 19 mg/L, 6 DAT (row with O24KEK)) was 35%. The “% Mort. Chem.” value (fall armyworm; Chlorpyrifos 19 mg/L, 6 DAT (row with O333A4)) was 35%, the “LT50 Chem.” value (fall armyworm; Chlorpyrifos alone 19 mg/L) was 6.83 days and 8.02 days and the “LT50 (95% confidence intervals)” value (diamondback moth; chlorpyrifos 3.8 mg/L, O43NEW filtrate 1%, alone or combined) was 3.72 days. The “LT50 Chem.” value (diamondback moth; chlorpyrifos 3.8 mg/L) was 3.72 days, the “% Mort. Chem.” value (diamondback moth; chlorpyrifos 3.8 mg/L, 4 DAT) was 74% and the mortality at 3.8 µg/mL (diamondback moth; Plutella xylostella, foliar, 96 h, read-out: % Mortality (4DAT), 2nd instar diamondback moth, chlorpyrifos 3.8 mg/L, O43NEW filtrate 1%, alone or combined, 4 DAT, Abbott's corrected) was 74%.
For CN/C(=N\[N+](=O)[O-])NCc1cnc(Cl)s1 [Clothianidin], the “LT50 Chem.” value (cabbage looper [1]) was 9.07 days, the “% Mort. Chem.” value (cabbage looper [1]; 5 DAT) was 30% and the “LT50 (95% confidence intervals) in days” value (fall armyworm; clothianidin 60 mg/L, isolate O24G3R 1×10^5 cfu/mL) was 9.38 (8.57-10.27) days. The “LT50 (95% confidence intervals) in days” value (fall armyworm; clothianidin 60 mg/L, isolate O43NEW 1×10^5 cfu/mL) was 10.94 (9.97-12.03) days, the “LT50 (95% confidence intervals) in days” value (fall armyworm; clothianidin 60 mg/L, isolate O333A4 1×10^5 cfu/mL) was 22.94 (19.21-27.62) days and the mortality at 60 µg/mL (fall armyworm; 96 h, read-out: % Mortality (4DAT), 3rd instar, clothianidin 60 mg/L, isolate O333A4 1×10^5 cfu/mL) was 0%. For the same molecule, the mortality at 60 µg/mL (fall armyworm; 120 h, read-out: % Mortality (5DAT), 3rd instar, clothianidin 60 mg/L, isolate O24G3R 1×10^5 cfu/mL) was 5%, the mortality at 60 µg/mL (fall armyworm; 120 h, read-out: % Mortality (5DAT), 3rd instar, clothianidin 60 mg/L, isolate O333A4 1×10^5 cfu/mL) was 0% and the mortality at 60 µg/mL (fall armyworm; 144 h, read-out: % Mortality (6DAT), 3rd instar, clothianidin 60 mg/L, isolate O24G3R 1×10^5 cfu/mL) was 11%. It also gave a mortality at 60 µg/mL (fall armyworm; 168 h, read-out: % Mortality (7DAT), 3rd instar, clothianidin 60 mg/L, isolate O43NEW 1×10^5 cfu/mL) of 0%, a mortality at 60 µg/mL (fall armyworm; 168 h, read-out: % Mortality (7DAT), 3rd instar, clothianidin 60 mg/L, isolate O333A4 1×10^5 cfu/mL) of 5% and a mortality at 60 µg/mL (fall armyworm; 240 h, read-out: % Mortality (10DAT), 3rd instar, clothianidin 60 mg/L, isolate O43NEW 1×10^5 cfu/mL) of 0%. For the same molecule, the mortality at 60 µg/mL (fall armyworm; 312 h, read-out: % Mortality (13DAT), 3rd instar, clothianidin 60 mg/L, isolate O43NEW 1×10^5 cfu/mL) was 11%, the “% Mort. Chem.” value (fall armyworm; Clothianidin 60 mg/L, 5 DAT) was 5% and the “% Mort. Chem.” value (fall armyworm; Clothianidin 60 mg/L, 7 DAT) was 5%. For the same molecule, the “% Mort. Chem.” value (fall armyworm; Clothianidin 60 mg/L, 10 DAT) was 0%, the “LT50 (95% confidence intervals)” value (diamondback moth; clothianidin 60 mg/L, O43NEW filtrate 1%, alone or combined) was 6.120 days and the “LT50 Chem.” value (diamondback moth; clothianidin 60 mg/L) was 6.12 days. The “% Mort. Chem.” value (diamondback moth; clothianidin 60 mg/L, 4 DAT) was 47%, the mortality at 60 µg/mL (diamondback moth; Plutella xylostella, foliar, 96 h, read-out: % Mortality (4DAT), 2nd instar diamondback moth, clothianidin 60 mg/L, O43NEW filtrate 1%, alone or combined, 4 DAT, Abbott's corrected) was 47% and the mortality at 60 µg/mL (diamondback moth; Plutella xylostella, foliar, 120 h, read-out: % Mortality (5DAT), 2nd instar diamondback moth, clothianidin 60 mg/L, O43NEW filtrate 1%, alone or combined, 5 DAT, Abbott's corrected) was 53%.
With CC1(C)C(C=C(Cl)Cl)C1C(=O)OC(C#N)c1ccc(F)c(Oc2ccccc2)c1 (centres unmarked) [Cyfluthrin] the “LT50 (95% confidence intervals)” value (black cutworm; 3rd instar, cyfluthrin […], isolate O43NEW 1×10^4 cfu/mL) was 8.82 days, the “LT50 Chem.” value (black cutworm; Cyfluthrin alone […]) was 8.82 days and the “LT50 Chem.” value (cabbage looper [2]; cabbage looper, Cyfluthrin alone […]) was 7.33 days. The “% Mortality (4DAT)” value (cabbage looper [2]; in vivo) was 30%, the “% Mortality (5DAT)” value (cabbage looper [2]; in vivo) was 50% and the “LT75 (95% confidence intervals)” value (cabbage looper [2]; in vivo) was 7.326 days.
In the case of Cc1cc(C(F)(C(F)(F)F)C(F)(F)F)ccc1NC(=O)c1cccc(I)c1C(=O)NC(C)(C)CS(C)(=O)=O [Flubendiami-de], the “LT50 Chem.” value (black cutworm; Flubendiami-de alone 0.2 mg/L) is reported as 4.83 days and the “LT50 Chem.” value (black cutworm; Flubendiami-de alone 0.59 mg/L) is reported as 4.99 days.
For CCOC(=O)OC1=C(c2cc(C)ccc2C)C(=O)N[C@]12CC[C@@H](OC)CC2 [Spirotetramat], the “LT50 (95% confidence intervals) in days” value (fall armyworm; spirotetramat 300 mg/L, isolate O43NEW 1×10^5 cfu/mL) was 10.29 (9.39-11.29) days, the mortality at 300 µg/mL (fall armyworm; 144 h, read-out: % Mortality (6DAT), 3rd instar, spirotetramat 300 mg/L, isolate O43NEW 1×10^5 cfu/mL) was 6% and the mortality at 300 µg/mL (fall armyworm; 168 h, read-out: % Mortality (7DAT), 3rd instar, spirotetramat 300 mg/L, isolate O43NEW 1×10^5 cfu/mL) was 13%. The “% Mort. Chem.” value (fall armyworm; Spirotetramat 300 mg/L, 6 DAT) was 6%, the “LT50 Chem.” value (fall armyworm; Spirotetramat alone 300 mg/L) was 10.29 days and the “LT50 (95% confidence intervals) in days” value (diamondback moth; spirotetramat 30 mg/L, 1% O24G3R filtrate) was 23.41 (19.1-28.86) days. For the same molecule, the “LT50 (95% confidence intervals) in days” value (diamondback moth; spirotetramat 30 mg/L, 1% O43NEW filtrate) was 21.02 (16.86-26.76) days, the “% Mort. Chem.” value (diamondback moth; spirotetramat 30 mg/L, 6 DAT, O43NEW experiment) was 11% and the “% Mort. Chem.” value (diamondback moth; spirotetramat 30 mg/L, 10 DAT, O24G3R experiment) was 0%. For the same molecule, the “LT50 Chem.” value (diamondback moth; spirotetramat 30 mg/L, O24G3R experiment) was 23.41 days, the “LT50 Chem.” value (diamondback moth; spirotetramat 30 mg/L, O43NEW experiment) was 21.02 days and the mortality at 30 µg/mL (diamondback moth; Plutella xylostella, foliar, 96 h, read-out: % Mortality (4DAT), diamondback moth, spirotetramat 30 mg/L, 1% O43NEW filtrate, 4 DAT, Abbott's corrected) was 5%. It also gave a mortality at 30 µg/mL (diamondback moth; Plutella xylostella, foliar, 120 h, read-out: % Mortality (5DAT), diamondback moth, spirotetramat 30 mg/L, 1% O43NEW filtrate, 5 DAT, Abbott's corrected) of 5%, a mortality at 30 µg/mL (diamondback moth; Plutella xylostella, foliar, 144 h, read-out: % Mortality (6DAT), diamondback moth, spirotetramat 30 mg/L, 1% O24G3R filtrate, 6 DAT, Abbott's corrected) of 0% and a mortality at 30 µg/mL (diamondback moth; Plutella xylostella, foliar, 144 h, read-out: % Mortality (6DAT), diamondback moth, spirotetramat 30 mg/L, 1% O43NEW filtrate, 6 DAT, Abbott's corrected) of 11%. The mortality at 30 µg/mL (diamondback moth; Plutella xylostella, foliar, 168 h, read-out: % Mortality (7DAT), diamondback moth, spirotetramat 30 mg/L, 1% O43NEW filtrate, 7 DAT, Abbott's corrected) was 16%, the mortality at 30 µg/mL (diamondback moth; Plutella xylostella, foliar, 240 h, read-out: % Mortality (10DAT), diamondback moth, spirotetramat 30 mg/L, 1% O24G3R filtrate, 10 DAT, Abbott's corrected) was 0% and the mortality at 30 µg/mL (diamondback moth; Plutella xylostella, foliar, 264 h, read-out: % Mortality (11DAT), diamondback moth, spirotetramat 30 mg/L, 1% O24G3R filtrate, 11 DAT, Abbott's corrected) was 0%. The mortality at 30 µg/mL (diamondback moth; Plutella xylostella, foliar, 336 h, read-out: % Mortality (14DAT), diamondback moth, spirotetramat 30 mg/L, 1% O24G3R filtrate, 14 DAT, Abbott's corrected) was 0%.

— patent publication US11716994B2, “Combinations of Yersinia entomophaga and pesticides or other substances” (priority 2017, dated 2023)
